Laboratory results from US20250066282A1, “NOVEL ANALOGS OF VALPROIC ACID AND METHODS OF MEDICAL TREATMENT USING THE SAME” (Cereno Scientific AB, priority 2021, published 2025).

Legend:
[1] = reported by Rettie, J. Biol. Chem. 263(27):13733-13738 (1988); cited from earlier work
[2] = system: C57BL/6 wild type mice; test: Excessive bleeding assay (tail bleeding time); assay type: in vivo; details: tail resection 5 mm, 100 mg/kg IP once a day for five days, compared to control (FIG. 1)
Description: To determine the risks of excessive bleeding associated with the compounds of the present invention, the last 5 mm of the tail of mice was resected to identify the amount of time necessary for the vessel to properly clot and prevent excessive loss of blood.
10-12 weeks old C57BL/6 wild type mice were purchased from Jackson Laboratories for these experiments. Various compounds were administered to the mice via IP injection once a day at a dose of 100 mg/kg of compound for five days prior to resection.
Mice were sedated with 250 μL of ketamine solution (Ketamine (100 μL)/xylazine (50 μL) in 850 μl. Saline solution). The mice were then placed face down on a heat pad on top of the bead bath to enable the tail to be pulled into a saline-filled tube. 5 mm of the tail as cut with a scalpel and the tail was placed in a saline-filled tube and a timer started. The timer was stopped when the bleeding stopped, but the possibility of re-bleeds was observed from 10 minutes after initial bleeding stopped. If the mouse bleeds continuously for 10 minutes, the experiment was halted and the mouse was euthanized. One-way ANOVA with Dunnett's correction for multiple comparison test was performed to determine statistical significance of bleeding times.

[3] = system: C57BL/6 wild type mice; test: Cremaster laser-induced thrombosis assay (platelet accumulation, fibrin formation); assay type: in vivo; details: cremaster arteriole laser-induced injury
Description: The effects of the compounds of the invention and VPA on the ability and timing of clot formation were determined. Specifically, platelet accumulation and fibrin formation in the cremaster artery in forming a non-occlusive clot were measured following laser-induced insult to the vessel in 10-12 week-old mice (C57BL/6 wild type mice purchased from Jackson Laboratories).
Valproic acid (VPA) was purchased from Sigma-Aldrich as a powder and resuspended in 0.9% Sodium Chloride (saline) to prepare a final stock solution of each compound.
To assess platelet accumulation and fibrin formation, a Zeiss Axio Examiner Z1 fluorescent multichannel intravital microscope was used. The microscope was equipped with: (1) a solid laser launch system (LaserStack; Ablate! Photoablation system, intelligent Imaging innovations), (2) a high-speed sCMOS camera, and (3) a laser ablation system (intelligent Imaging innovations, Denver, CO, USA). SlideBook 6.0 digital microscopy software for image recording and analysis was also used. An anti-platelet antibody, and an anti-fibrin antibody, both commercially available, were used for imaging purposes.
The dynamic accumulation of platelets and fibrin within thrombi at the site of the injury in vivo was evaluated in cremaster arteriole in response to laser-induced injury under intravital microscopy. Adult male mice (10-12 weeks old) were treated with 30 mg/kg and 100 mg/kg for 5 days prior to injury were anesthetized by an intraperitoneal injection of ketamine/xylazine (100 and 10 mg/kg, respectively) and the jugular vein was cannulated. A tracheal tube was inserted to facilitate breathing. The cremaster arteriole was surgically prepared and superfused with preheated bicarbonate saline buffer throughout the experiment.
DyLight 488-conjugated rat anti-mouse platelet GP1bβ antibody (0.1 μg/g; EMFRET Analytics) and Alexa Fluor 647-conjugated anti-fibrin (0.3 μg/g) were administered intravenously via a jugular vein cannula prior to vascular injury. Microcirculation was monitored and recorded under multichannel intravital microscopy.
Multiple independent thrombi (6-8 thrombi in each mouse) were induced in the arterioles (30-50 μm diameter) in each mouse by a laser ablation system. Images of thrombus formation at the site of injured arterioles were acquired in realtime under 63× water-immersion objective with a Zeiss Axio Examiner Z1 fluorescent microscope equipped with solid laser launch system (LaserStack; Intelligent Imaging Innovations) and high-speed sCMOS camera. All captured images were analyzed for the change of fluorescent intensity over the course of thrombus formation after subtracting fluorescent background using the Slidebook program. […]

[4] = 100 mg/kg IP for 5 days, versus VPA (FIG. 4)

For [2H]C([2H])(C)CC(CC([2H])([2H])C)C(=O)O [4,4,4′,4′-D4VPA], the “formation of the 4-ene-VPA metabolite compared to VPA” value [1] is given as “considerably less formation of the 4-ene metabolite”.

For [2H]C([2H])([2H])CCC(CCC([2H])([2H])[2H])C(=O)O [5,5,5,5′,5′,5′D6VPA], the “formation of the 4-ene-VPA metabolite compared to VPA” value [1] is listed as “increased amount of the 4-ene-VPA metabolite”.

For [2H]C([2H])C([2H])([2H])CC(CC([2H])([2H])C([2H])[2H])C(=O)O [Compound Ia, 2-[(2,2,3,3-2H4)propyl](4,4,5,5-2H4)pentanoic acid], the bleeding time [2] was “best safety profile in terms of risk of excess bleeding”, the platelet accumulation ([3]; 30 mg/kg IP for 5 days, versus VPA (FIG. 2)) was “consistent decrease” and the fibrin formation ([3]; 30 mg/kg IP for 5 days, versus VPA (FIG. 3)) was “consistent decrease”. The platelet accumulation [3, 4] was “consistent decrease in platelet accumulation over VPA”.

In the case of [2H]C([2H])C([2H])([2H])CC([2H])(CC([2H])([2H])C([2H])[2H])C(=O)O [Compound Ib, 2-(Propyl-2,2,3,3-d4)pentanoic-2,4,4,5,5-d5 acid], the platelet accumulation [3, 4] is reported as “consistent decrease in platelet accumulation over VPA”.

With CCCC(CCC)C(=O)O [VPA, Valproic acid] the bleeding time [2] was “significant increase in bleeding time”.
